Experimental data from patent US20260297070A1, “CYCLIC [COMPOUND LEFT OUT] WRN INHIBITORS” (Nimbus Wadjet, Inc., priority 2023, published 2026).
pIC50: −log10 of the molar value.

Each molecule was assayed against T1, human Werner helicase (WRN-BV08, Uniprot Q14191, amino acids 517-1235 with L1074F point mutation) (Homo sapiens, UniProt Q14191, L1074F) (assay: WRN (BV08) ADP-Glo Assay). Conditions: 0.15 nM WRN, 5 μM ATP, 0.1 nM DNA duplex, 15 min preincubation, 60 min at 25° C., pH 7.5, 1% DMSO; read-out: ADP-Glo_hWRN_IC50.
T1 construct: Uniprot Q14191, amino acids 517-1235 with L1074F point mutation; TEV-cleavable 8×His (C, cleaved yes); made in house; host or cells: Sf9 insect cells (baculovirus)
T1 sequence (Q14191 with tags, fused parts or gaps L1074F limits assumed): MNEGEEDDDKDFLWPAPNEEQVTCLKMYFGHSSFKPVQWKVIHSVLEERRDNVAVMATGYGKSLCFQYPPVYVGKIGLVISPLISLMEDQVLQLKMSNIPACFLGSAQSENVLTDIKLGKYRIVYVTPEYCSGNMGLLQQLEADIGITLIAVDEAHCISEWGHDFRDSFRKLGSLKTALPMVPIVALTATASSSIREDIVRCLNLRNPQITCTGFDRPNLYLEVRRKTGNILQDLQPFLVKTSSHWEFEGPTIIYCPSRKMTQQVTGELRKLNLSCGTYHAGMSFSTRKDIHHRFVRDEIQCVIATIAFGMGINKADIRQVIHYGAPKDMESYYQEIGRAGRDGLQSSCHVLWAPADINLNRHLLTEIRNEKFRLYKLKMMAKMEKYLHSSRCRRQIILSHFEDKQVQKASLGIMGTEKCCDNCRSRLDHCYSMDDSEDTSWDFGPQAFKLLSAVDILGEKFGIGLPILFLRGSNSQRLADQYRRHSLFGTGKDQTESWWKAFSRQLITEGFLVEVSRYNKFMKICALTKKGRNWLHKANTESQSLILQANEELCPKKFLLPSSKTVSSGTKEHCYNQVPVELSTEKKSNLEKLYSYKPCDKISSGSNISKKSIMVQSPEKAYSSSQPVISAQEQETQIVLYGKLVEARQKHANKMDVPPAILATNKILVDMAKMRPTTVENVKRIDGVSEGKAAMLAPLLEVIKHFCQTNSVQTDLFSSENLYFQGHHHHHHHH
Assay type: biochemical
In short: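 0.15 nM WRN (aa 517-1235, L1074F, Sf9-expressed, tag cleaved) preincubated 15 min at 25 °C with compound, then 5 μM ATP and 0.1 nM DNA duplex added for 60 min. Buffer: 20 mM Bicine pH 7.5, 1 mM MgCl2, 10 mM KCl, 1 mM TCEP; 1% DMSO. ADP-Glo luminescence; IC50 by 4-parameter fit.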

Row | pIC50 | Compound
1 | 5.30 to 6.30 | COc1cc(CN(C(=O)Cc2ccc(S(F)(F)(F)(F)F)cc2)C2C=CS(=O)(=O)C2)nc(N(C)C)n1 (centres unmarked) [I-635, N-{[2-(dimethylamino)-6-methoxypyrimidin-4-yl]methyl}-N-(1,1-dioxo-2,3-dihydro-1lambda6-thiophen-3-yl)-2-[4-(pentafluoro-lambda6-sulfanyl)phenyl]acetamide]
2 | 5.00 to 5.30 | CNC(=O)c1ccc(CN(C(=O)Cc2ccc(-n3cccc3)cc2)C2C=CS(=O)(=O)C2)cc1 (centres unmarked) [I-255, 4-{[N-(1,1-dioxo-2,3-dihydro-1lambda6-thiophen-3-yl)-2-[4-(1H-pyrrol-1-yl)phenyl]acetamido]methyl}-N-methylbenzamide]
3 | > 6.30 | Cc1cccn1-c1ccc(CC(=O)N(Cc2nc(C3CC3)cs2)C2C=CS(=O)(=O)C2)c(F)c1 (centres unmarked) [I-60, N-[(4-cyclopropyl-1,3-thiazol-2-yl)methyl]-N-(1,1-dioxo-2,3-dihydro-1lambda6-thiophen-3-yl)-2-[2-fluoro-4-(2-methyl-1H-pyrrol-1-yl)phenyl]acetamide]
4 | > 6.30 | CC(C)(O)c1cc(CN(C(=O)Cc2ccc(-c3ccc(F)c(F)c3)cc2F)C2C=CS(=O)(=O)C2)ccn1 (single isomer, unassigned) [I-11]
5 | < 4.30 | O=C(Cc1ccc(-n2cccc2)cc1)N(c1c[nH]c2ncc(F)cc12)C1C=CS(=O)(=O)C1 (centres unmarked) [I-479, N-(1,1-dioxo-2,3-dihydro-1lambda6-thiophen-3-yl)-N-{5-fluoro-1H-pyrrolo[2,3-b]pyridin-3-yl}-2-[4-(1H-pyrrol-1-yl)phenyl]acetamide]
6 | > 6.30 | COc1cc(CN(C(=O)C(C(=O)N(C)C)c2ccc(-c3ccc(F)cc3)cc2F)C2C=CS(=O)(=O)C2)ccn1 (centres unmarked) [I-46, 2-{3,4′-difluoro-[1,1′-biphenyl]-4-yl}-N-(1,1-dioxo-2,3-dihydro-1lambda6-thiophen-3-yl)-N-[(2-methoxypyridin-4-yl)methyl]-N′,N′-dimethylpropanediamide]
7 | 5.30 to 6.30 | CC(C)(O)c1cc(CN(C(=O)Cc2ncc(-c3ccc(F)c(F)c3)cn2)C2C=CS(=O)(=O)C2)ccn1 (centres unmarked) [I-116, 2-[5-(3,4-difluorophenyl)pyrimidin-2-yl]-N-(1,1-dioxo-2,3-dihydro-1lambda6-thiophen-3-yl)-N-{[2-(2-hydroxypropan-2-yl)pyridin-4-yl]methyl}acetamide]
8 | 4.30 to 5.00 | O=C(Cc1ccc(-n2cccc2)cc1)N(Cc1noc(C2CC2)n1)C1C=CS(=O)(=O)C1 (centres unmarked) [I-342, N-[(5-cyclopropyl-1,2,4-oxadiazol-3-yl)methyl]-N-(1,1-dioxo-2,3-dihydro-1lambda6-thiophen-3-yl)-2-[4-(1H-pyrrol-1-yl)phenyl]acetamide]
9 | 4.30 to 5.00 | O=C(CCCC[C@@H]1SC[C@@H]2NC(=O)N[C@@H]21)NCCOCCOCCOCCOCCOCCOCCC(=O)N1CCN(Cc2ccc(CN(C(=O)Cc3ccc(-n4cccc4)cc3F)C3C=CS(=O)(=O)C3)cc2)CC1 (stereo partly drawn) [II-4, 5-[(3aS,4S,6aR)-2-oxo-hexahydro-1H-thieno[3,4-d]imidazol-4-yl]-N-(21-{4-[(4-{[N-(1,1-dioxo-2,3-dihydro-1lambda6-thiophen-3-yl)-2-[2-fluoro-4-(1H-pyrrol-1-yl)phenyl]acetamido]methyl}phenyl)methyl]piperazin-1-yl}-21-oxo-3,6,9,12,15,18-hexaoxahenicosan-1-yl)pentanamide]
10 | 5.00 to 5.30 | O=C1Nc2cc(C(F)(F)F)ccc2SC1CC(=O)N(Cc1ccncc1)C1C=CS(=O)(=O)C1 (centres unmarked) [I-231, N-(1,1-dioxo-2,3-dihydro-1lambda6-thiophen-3-yl)-2-[3-oxo-6-(trifluoromethyl)-3,4-dihydro-2H-1,4-benzothiazin-2-yl]-N-[(pyridin-4-yl)methyl]acetamide]
11 | 5.30 to 6.30 | CN(C)C(=O)C(C(=O)N(Cc1ccncc1)C1C=CS(=O)(=O)C1)c1ccc(-c2ccc(F)cc2)cc1 (centres unmarked) [I-104, N′-(1,1-dioxo-2,3-dihydro-1lambda6-thiophen-3-yl)-2-{4′-fluoro-[1,1′-biphenyl]-4-yl}-N,N-dimethyl-N′-[(pyridin-4-yl)methyl]propanediamide]

Further lines, the molecule ahead of its results:

Row | Compound | pIC50
12 | COc1cc(CN(C(=O)Cc2ccc(C3CC(F)C3)cc2F)[C@@H]2C=CS(=O)(=O)C2)ccn1 (stereo partly drawn) [I-591, N-[(3R)-1,1-dioxo-2,3-dihydro-1lambda6-thiophen-3-yl]-2-[2-fluoro-4-(3-fluorocyclobutyl)phenyl]-N-[(2-methoxypyridin-4-yl)methyl]acetamide] | 5.30 to 6.30
13 | CC(C)(O)c1cc(CN(C(=O)Cc2ccc(C(F)(F)F)cc2F)C2C=CS(=O)(=O)C2)ccn1 (centres unmarked) [I-128, N-(1,1-dioxo-2,3-dihydro-1lambda6-thiophen-3-yl)-2-[2-fluoro-4-(trifluoromethyl)phenyl]-N-{[2-(2-hydroxypropan-2-yl)pyridin-4-yl]methyl}acetamide] | 5.30 to 6.30
14 | COc1cc(CN(C(=O)C(OCc2cnn(C)c2)c2ccc(-c3ccc(F)c(F)c3)cc2F)[C@@H]2C=CS(=O)(=O)C2)ccn1 (stereo partly drawn) [I-745, N-[(3R)-1,1-dioxo-2,3-dihydro-1lambda6-thiophen-3-yl]-N-[(2-methoxypyridin-4-yl)methyl]-2-[(1-methyl-1H-pyrazol-4-yl)methoxy]-2-{3,3′,4′-trifluoro-[1,1′-biphenyl]-4-yl}acetamide] | 5.30 to 6.30
15 | COc1cc(CN(C(=O)Cc2ccc(-c3ccc(F)cc3)cn2)C2C=CS(=O)(=O)C2)ccn1 (centres unmarked) [I-175, N-(1,1-dioxo-2,3-dihydro-1lambda6-thiophen-3-yl)-2-[5-(4-fluorophenyl)pyridin-2-yl]-N-[(2-methoxypyridin-4-yl)methyl]acetamide] | 5.30 to 6.30
16 | CN(C)C(=O)C(C(=O)N(Cc1ccncc1)C1C=CS(=O)(=O)C1)c1ccc(Br)cc1 (centres unmarked) [I-474, 2-(4-bromophenyl)-N′-(1,1-dioxo-2,3-dihydro-1lambda6-thiophen-3-yl)-N,N-dimethyl-N′-[(pyridin-4-yl)methyl]propanediamide] | < 4.30
17 | O=C(Cn1nnc(-c2ccccc2)n1)N(Cc1ccncc1)C1C=CS(=O)(=O)C1 (centres unmarked) [I-442, N-(1,1-dioxo-2,3-dihydro-1lambda6-thiophen-3-yl)-2-(5-phenyl-2H-1,2,3,4-tetrazol-2-yl)-N-[(pyridin-4-yl)methyl]acetamide] | < 4.30
18 | CN(C)C(=O)C(C(=O)N(Cc1ccnc(C(C)(C)O)c1)C1C=CS(=O)(=O)C1)c1ccc(-c2ccc(F)cc2)cc1F (single isomer, unassigned) [I-258, (2R**)-2-{3,4′-difluoro-[1,1′-biphenyl]-4-yl}-N-[(3R*)-1,1-dioxo-2,3-dihydro-1lambda6-thiophen-3-yl]-N-{[2-(2-hydroxypropan-2-yl)pyridin-4-yl]methyl}-N′,N′-dimethylpropanediamide] | 5.00 to 5.30
19 | COc1cc(CN(C(=O)C(c2ccc(-c3ccc(F)c(F)c3)cc2F)n2cc(C#N)cn2)[C@@H]2C=CS(=O)(=O)C2)ccn1 (single isomer, unassigned) [I-712, (2R*)-2-(4-cyano-1H-pyrazol-1-yl)-N-[(3R)-1,1-dioxo-2,3-dihydro-1lambda6-thiophen-3-yl]-N-[(2-methoxypyridin-4-yl)methyl]-2-{3,3′,4′-trifluoro-[1,1′-biphenyl]-4-yl}acetamide] | 5.30 to 6.30
20 | COc1cc(CN(C(=O)Cn2ncc(-c3ccccc3)c2C)[C@@H]2C=CS(=O)(=O)C2)ccn1 [I-595, N-[(3R)-1,1-dioxo-2,3-dihydro-1lambda6-thiophen-3-yl]-N-[(2-methoxypyridin-4-yl)methyl]-2-(5-methyl-4-phenyl-1H-pyrazol-1-yl)acetamide] | 5.30 to 6.30
